{"source": "paper PMC6470885", "about": "(Molecules, 2019)", "key": {"[1]": {"tested_on": "HIV-1 mutants resistant to T20, T2635, or HP23", "assay_type": "cell-based", "conditions": "ratio of IC50s", "quoted_text": "(§3) For each well of a 96-well plate, 50 μL of a peptide were mixed with 50 μL of 100 × TCID50 (50% tissue culture infective doses) of HIV-1 live virus and incubated at 37 °C for 30 min. Afterwards, 2 × 10^4 MT-2 (for X4 virus) or CEMx174 5.25 M7 cells (for R5 virus) were added. After overnight culture, the supernatant was replaced with fresh RPMI-1640 medium containing 10% fetal bovine serum (FBS). After further culture at 37 °C for three days, 50 μL of the culture medium were collected and mixed with equal volume of 5% (v/v) Triton X-100. The p24 antigen, which represents HIV-1 quantity, was detected by ELISA. Briefly, the collected mixtures were added to a plate coated with anti-HIV Immune Globulin (HIVIG) from the NIH AIDS Reagent Program. Anti-p24 mAb 183, rabbit anti-mouse IgG-HRP (Dako, Glostrup, Denmark) and substrate 3,3,5,5-TMB (Sigma-Aldrich, New York, NY) were added and washed away sequentially. The absorbance at 450 nm (A450) was determined by a Multi-Detection Microplate Reader (Ultra 384, Tecan, Tokyo, Japan). IC50s were calculated using Calcusyn software (Biosoft, Ferguson, MO), and the lines of best fit were drawn using GraphPad Prism 8 software (La Jolla, CA)."}, "HIV-1Bal (R5 virus)": {"tested_on": "HIV-1Bal (R5 virus)", "assay_type": "cell-based", "conditions": "ratio of IC50s", "quoted_text": "(§4) Inhibitory activities of peptides on infection by HIV-1 X4 strain IIIB, R5 strain Bal, and T20-, T2635-, HP23-resistant strains were determined as previously described [42]. For each well of a 96-well plate, 50 μL of a peptide were mixed with 50 μL of 100 × TCID50 (50% tissue culture infective doses) of HIV-1 live virus and incubated at 37 °C for 30 min. Afterwards, 2 × 10^4 MT-2 (for X4 virus) or CEMx174 5.25 M7 cells (for R5 virus) were added. After overnight culture, the supernatant was replaced with fresh RPMI-1640 medium containing 10% fetal bovine serum (FBS). After further culture at 37 °C for three days, 50 μL of the culture medium were collected and mixed with equal volume of 5% (v/v) Triton X-100. The p24 antigen, which represents HIV-1 quantity, was detected by ELISA. Briefly, the collected mixtures were added to a plate coated with anti-HIV Immune Globulin (HIVIG) from the NIH AIDS Reagent Program. Anti-p24 mAb 183, rabbit anti-mouse IgG-HRP (Dako, Glostrup, Denmark) and substrate 3,3,5,5-TMB (Sigma-Aldrich, New York, NY) were added and washed away sequentially. The absorbance at 450 nm (A450) was determined by a Multi-Detection Microplate Reader (Ultra 384, Tecan, Tokyo, Japan). IC50s were calculated using Calcusyn software (Biosoft, Ferguson, MO), and the lines of best fit were drawn using GraphPad Prism 8 software (La Jolla, CA)."}, "[2]": {"tested_on": "HIV-1 T20-resistant strains", "conditions": "ratio of IC50s", "quoted_text": "as §4"}, "[3]": {"tested_on": "HIV-1 T2635-resistant strains", "conditions": "ratio of IC50s", "quoted_text": "as §3"}, "HIV-1IIIB (X4 virus) [4]": {"tested_on": "HIV-1IIIB (X4 virus)", "assay": "Virus wash and nonwash assay", "assay_type": "cell-based", "conditions": "HIV-1IIIB incubated with peptide 4 °C 30 min, unbound peptide washed away, then MT-2 cells", "description": "To determine whether a peptide binds with the viral particle in order to execute its anti-HIV-1 activity, virus wash and nonwash assays were performed as previously described. Briefly, HIV-1IIIB (50 × TCID50) were incubated with a peptide at 4 °C for 30 min, followed by washes of the pretreated viral particles to remove the unbound peptide (control: without washes) before being added to 2 × 10^4 MT-2 cells. After culture at 37 °C overnight, the supernatant was replaced by fresh RPMI-1640 medium containing 10% FBS. The inhibitory activity of the virus-bound peptide in the wash group and free peptide in the nonwash group was determined as described above."}, "M7 cells": {"tested_on": "M7 cells", "assay": "Cytotoxicity, CCK8 assay, M7 cells", "description": "(§1) A peptide at graded concentration was incubated with 2 × 10^5/mL cells at 37 °C for 3 days before adding 10 μL of CCK8 reagent (Sigma-Aldrich). After another round of incubation at 37 °C for 2 h, A450 was measured with the Multi-Detection Microplate Reader. Cell viability was calculated by […]."}, "MT-2 cells": {"tested_on": "MT-2 cells", "assay": "Cytotoxicity, CCK8 assay, MT-2 cells", "description": "as §1"}, "[5]": {"tested_on": "cell-cell fusion between H9/IIIB cells and MT-2 cells", "assay": "HIV-1-mediated cell-cell fusion (dye transfer assay)", "assay_type": "cell-based", "conditions": "ratio of IC50s", "description": "A dye transfer assay was performed to detect HIV-1 Env-mediated cell-cell fusion as described previously. Briefly, for each well of a 96-well plate, 2 × 10^3 H9/IIIB cells labeled with the fluorescent reagent Calcein AM (Molecular Probes, Inc., Eugene, Oregon) were incubated with a CHR-peptide at 37 °C for 30 min. Afterwards, 10^4 MT-2 cells were added and incubated at 37 °C for 2 h. The fused and unfused Calcein-labeled H9/IIIB cells were counted under an inverted fluorescence microscope (Zeiss, Oberkochen, Germany). The IC50 values were calculated by using the Calcusyn computer program (Biosoft, Ferguson, MO)."}, "HIV-1IIIB (X4 virus) [6]": {"tested_on": "HIV-1IIIB (X4 virus)", "assay_type": "cell-based", "conditions": "ratio of IC50s", "quoted_text": "as §4"}, "[7]": {"tested_on": "HIV-1 HP23-resistant strains", "conditions": "ratio of IC50s", "quoted_text": "as §3"}, "[8]": {"assay": "Serum half-life and pharmacokinetic parameters in mice", "description": "(§2) Evaluation of ex vivo anti-HIV-1 activity of a peptide in a mouse model was performed as described recently. This mouse experiment was conducted under ethical guidelines and approved by the Institutional Laboratory Animal Care and Use Committee at Fudan University (20160927-2). ICR mice used for this study were bred at the Department of Laboratory Animal Science of Fudan University. Briefly, 5 mg/kg of a peptide were intraperitoneally (i.p.) injected into four female ICR mice (8 weeks). […] Anti-HIV-1 activities of the mouse serum samples were determined in the same way as described above. The highest dilution-fold of the serum causing 50% inhibition of HIV-1IIIB infection (IC50) was calculated."}, "HIV-1IIIB": {"tested_on": "HIV-1IIIB", "assay": "Ex vivo anti-HIV-1 activity of sera of peptide-treated mice", "assay_type": "in vivo", "conditions": "ICR mice, 5 mg/kg i.p.; serum tested against HIV-1IIIB", "description": "as §2"}, "[9]": {"conditions": "concentrations as high as 8 μM, 3 days, 37 °C, CCK8"}, "[10]": {"conditions": "Mice (i.p., n = 3), 5 mg/kg, concentration estimated from serum anti-HIV-1 activity, MODFIT"}}, "note": "Several values for one entry are separate records, joined by “and”; a condition that tells them apart may be missing. Equal entries are not always repeated. Non-standard residues stand in square brackets, D forms with d. Residues, ends and D or L forms follow the SMILES beside them. *: point of attachment. Palmitoyl = CCCCCCCCCCCCCCCC(=O)*; PEG4 = NCCOCCOCCOCCOCCC(=O)O", "data": [{"compound": "CCCCCCCCCCCCCCCC(=O)NCCCC[C@H](NC(=O)CCOCCOCCOCCOCCNC(=O)CNC(=O)[C@H](CO)NC(=O)CNC(=O)[C@H](CC(C)C)NC(=O)[C@H](CC(=O)O)NC(=O)[C@@H](NC(=O)[C@H](CCC(N)=O)NC(=O)[C@H](CCC(N)=O)NC(=O)[C@H](CC(N)=O)NC(=O)[C@H](CCC(N)=O)NC(=O)[C@H](CO)NC(=O)[C@H](CCCCN)NC(=O)[C@H](CCCCN)NC(=O)[C@H](CC(C)C)NC(=O)[C@@H](NC(=O)[C@H](CCC(=O)O)NC(=O)[C@H](CCC(=O)O)NC(=O)[C@@H](NC(=O)[C@H](CCCCN)NC(=O)[C@H](CCCCN)NC(=O)[C@@H](NC(=O)[C@H](Cc1ccc(O)cc1)NC(=O)[C@H](CCC(=O)O)NC(=O)[C@H](CCC(=O)O)NC(=O)[C@@H](NC(=O)[C@H](CCCCN)NC(=O)[C@H](CCCCN)NC(=O)[C@H](CCC(=O)O)NC(=O)[C@H](Cc1c[nH]c2ccccc12)NC(=O)[C@H](CCC(=O)O)NC(=O)[C@H](CCC(=O)O)NC(=O)[C@H](Cc1c[nH]c2ccccc12)NC(=O)[C@@H](NC(=O)[C@H](CCSC)NC(=O)[C@@H](N)CCC(=O)O)[C@@H](C)O)[C@@H](C)CC)[C@@H](C)CC)[C@@H](C)CC)[C@@H](C)CC)[C@@H](C)CC)C(=O)O", "note": "[YIK-C16] (H-EMTWEEWEKKIEEYIKKIEEILKKSQNQQIDLGSG[PEG4]K(Palmitoyl)-OH; N-terminus and C-terminus assumed)", "values": [{"measurement": "fold more effective than HP23-E6-IDL against infection by HIV-1 mutants resistant to T20, T2635 and HP23", "setting": "[1]", "result": "about 16 fold"}, {"measurement": "fold more effective than HP23-E6-IDL against HIV-1Bal infection", "setting": "HIV-1Bal (R5 virus)", "result": "13.3 fold and ~13 fold"}, {"measurement": "fold more effective than YIK against HIV-1Bal infection", "setting": "HIV-1Bal (R5 virus)", "result": 10.5, "unit": "fold"}, {"measurement": "fold more potent than HP23-E6-IDL for inhibiting infection by HIV-1 T20-resistant strains", "setting": "[2]", "result": "about 12 fold"}, {"measurement": "fold more potent than HP23-E6-IDL for inhibiting infection by HIV-1 T2635-resistant strains", "setting": "[3]", "result": "about 12 fold"}, {"measurement": "inhibition of HIV-1IIIB infection, virus preincubated with peptide, washed", "setting": "HIV-1IIIB (X4 virus) [4]", "result": "could inhibit HIV-1IIIB infection when the unbound peptide was washed away"}, {"measurement": "non-cytotoxic concentration (8 μM) relative to IC50 for inhibiting HIV-1Bal infection", "setting": "M7 cells; 8 μM versus IC50 against HIV-1Bal", "result": "~131", "unit": "fold"}, {"measurement": "in vitro cytotoxicity to M7 cells", "setting": "M7 cells; [9]", "result": "none of these peptides exhibited in vitro cytotoxicity"}, {"measurement": "non-cytotoxic concentration (8 μM) relative to IC50 for inhibiting HIV-1IIIB infection", "setting": "MT-2 cells; 8 μM versus IC50 against HIV-1IIIB", "result": "about 105 fold"}, {"measurement": "in vitro cytotoxicity to MT-2 cells", "setting": "MT-2 cells; [9]", "result": "none of these peptides exhibited in vitro cytotoxicity"}, {"measurement": "potency relative to YIK and HP23-E6-IDL in inhibiting HIV-1-mediated cell-cell fusion", "setting": "[5]", "result": "about two-fold more potent"}, {"measurement": "fold more potent than YIK against HIV-1IIIB infection", "setting": "HIV-1IIIB (X4 virus) [6]", "result": 3.6, "unit": "fold"}, {"measurement": "fold more potent than HP23-E6-IDL for inhibiting infection by HIV-1 HP23-resistant strains", "setting": "[7]", "result": "~26", "unit": "fold"}, {"measurement": "AUC0-15h", "setting": "[8]; [10]", "result": "14900 ± 3800", "unit": "ng·h/mL"}, {"measurement": "AUCINF_obs", "setting": "[8]; [10]", "result": "15000 ± 3700", "unit": "ng·h/mL"}, {"measurement": "Cl_F_obs/Cl_obs", "setting": "[8]; [10]", "result": "5.773 ± 1.27", "unit": "mL/min/kg"}, {"measurement": "Cmax", "setting": "[8]; [10]", "result": "2200 ± 100", "unit": "ng/mL"}, {"measurement": "MRTlast", "setting": "[8]; [10]", "result": "9.5 ± 5.1", "unit": "h"}, {"measurement": "Tmax", "setting": "[8]; [10]", "result": "4.0 ± 1.7", "unit": "h"}, {"measurement": "Vz_F_obs/Vz_obs", "setting": "[8]; [10]", "result": "2.7388 ± 0.7407", "unit": "L/kg"}, {"measurement": "t½", "setting": "[8]; [10]", "result": "5.9 ± 3.2", "unit": "h"}, {"measurement": "fold longer serum half-life than HP23-E6-IDL", "setting": "[8]; mice, i.p.", "result": "~5.9", "unit": "fold"}, {"measurement": "maximum inhibitory activity of serum (fold of IC50; highest dilution-fold of serum causing 50% inhibition)", "setting": "HIV-1IIIB", "result": "about 4500 fold"}, {"measurement": "serum inhibitory activity maintained for 15 h post-injection (fold of IC50)", "setting": "HIV-1IIIB", "result": "> 275", "unit": "fold"}, {"measurement": "time of maximum serum inhibitory activity post-injection", "setting": "HIV-1IIIB", "result": "about 3 h"}]}]}
